Values joined by “and” are separate entries in the source; they are usually repeats but may differ in a detail not shown here. Identical values can stand only once.
Columns and labels:
Test in all cases: area under concentration-response curve (viability) (AUC (a.u.)); higher = less active
Details in all cases: 48 h
[1] = test system: CU-ACC1
Procedure, shortened: (§1)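 AC50 and area under the curve values derive from fitted concentration-response curves, restricted to inhibitory or non-responding curve classes. The curves came from three adrenocortical carcinoma cell lines in 1,536-well plates, each receiving 23 nL of every library compound at 11 concentrations. Viability was read by CellTiter-Glo luminescence after 48 h, normalised per plate to vehicle and empty-well controls.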

[2] = test system: CU-ACC2
Procedure, shortened: as §1

[3] = test system: NCI-H295R
Procedure, shortened: as §1

OCCn1cc(-c2ccc3c(c2)CC/C3=N\O)c(-c2ccncc2)n1
area under concentration-response curve [1]: 492
area under concentration-response curve [2]: 595
area under concentration-response curve [3]: 538

NNCCc1ccccc1.O=S(=O)(O)O
area under concentration-response curve [1]: 450
area under concentration-response curve [2]: 530
area under concentration-response curve [3]: 486

COc1cc2c(NC3CCN(C)CC3)nc(N3CCCN(C)CC3)nc2cc1OCCCN(C)C
area under concentration-response curve [1]: 544
area under concentration-response curve [2]: 641
area under concentration-response curve [3]: 564

C=C(C)[C@@H]1CC[C@]2(C)CC[C@]3(C)[C@H](CC[C@@H]4[C@@]5(C)CC[C@H](O)C(C)(C)[C@@H]5CC[C@]43C)[C@@H]12
area under concentration-response curve [1]: 484
area under concentration-response curve [2]: 582
area under concentration-response curve [3]: 551

CN(CCOc1ccc(CC2SC(=O)NC2=O)cc1)c1ccccn1 (centres undefined)
area under concentration-response curve [1]: 515
area under concentration-response curve [2]: 644
area under concentration-response curve [3]: 576

C[C@@H](N)[C@H]1CC[C@H](C(=O)Nc2ccncc2)CC1
area under concentration-response curve [1]: 472
area under concentration-response curve [2]: 487
area under concentration-response curve [3]: 448

Cc1nc(C)c(CN2CCN(C(c3ccc(F)cc3)c3ccc(F)cc3)CC2)nc1C
area under concentration-response curve [1]: 481
area under concentration-response curve [2]: 563
area under concentration-response curve [3]: 471

Clc1ccccc1C(c1ccccc1)(c1ccccc1)n1cccn1
area under concentration-response curve [1]: 496
area under concentration-response curve [2]: 489
area under concentration-response curve [3]: 520

COc1cc2nccc(Oc3ccc(NC(=O)NC4CC4)c(Cl)c3)c2cc1C(N)=O
area under concentration-response curve [1]: 516
area under concentration-response curve [2]: 623
area under concentration-response curve [3]: 582

O=C1Nc2ccc(I)cc2/C1=C/c1cc(Br)c(O)c(Br)c1
area under concentration-response curve [1]: 500
area under concentration-response curve [2]: 585
area under concentration-response curve [3]: 506

CC(=O)N1CCC(Nc2cc(C(=O)NC[C@H](O)CN3CCc4ccccc4C3)ncn2)CC1
area under concentration-response curve [1]: 450
area under concentration-response curve [2]: 558
area under concentration-response curve [3]: 473

Cc1cc(/C=c2/sc3nc4ccccc4n3c2=O)c(C)n1-c1ccccc1
area under concentration-response curve [1]: 569
area under concentration-response curve [2]: 625
area under concentration-response curve [3]: 549

CNC(=O)[C@@H](NC(=O)[C@H](CC(C)C)[C@H](O)C(=O)NO)C(C)(C)C
area under concentration-response curve [1]: 513
area under concentration-response curve [2]: 615
area under concentration-response curve [3]: 563

Cc1c(F)cc(C(=O)NC2CC2)cc1-c1c(F)cn2c(C(C)(C)C)nnc2c1F
area under concentration-response curve [1]: 482
area under concentration-response curve [2]: 507
area under concentration-response curve [3]: 469

NC/1=N/[C@]2(COC[C@H]2CS1)C3=CC(=CC=C3F)NC(=O)C4=NC=C(F)C=C4
area under concentration-response curve [1]: 499
area under concentration-response curve [2]: 569
area under concentration-response curve [3]: 490

O=C1Cc2cc(C(=O)NC3C[C@H]4CC[C@@H](C3)N4[S+](=O)([O-])CC3CCN(CCCC(F)(F)F)CC3)c(Cl)cc2N1 (some centres undefined)
area under concentration-response curve [1]: 525
area under concentration-response curve [2]: 611
area under concentration-response curve [3]: 539

C[C@H]1COC/2=C1/C(=O)C(=O)C3=C4CCCC(C)(C)C4=CC=C23
area under concentration-response curve [1]: 525
area under concentration-response curve [2]: 601
area under concentration-response curve [3]: 540

Cc1ccc(Nc2nccc(N(C)c3ccc4c(C)n(C)nc4c3)n2)cc1[S+](N)(=O)[O-]
area under concentration-response curve [1]: 516
area under concentration-response curve [2]: 620
area under concentration-response curve [3]: 570

COC1=CC=C(C=C1)/C2=C(O)/C(=O)C3=C(O)C=C(O)C(=C3O2)CC=C(C)C
area under concentration-response curve [1]: 415
area under concentration-response curve [2]: 388
area under concentration-response curve [3]: 416

CC1COC2(CCN(CC2)C/3=N/C(=O)C4=CC(=CC(=C4S3)[N+]([O-])=O)C(F)(F)F)O1 (centres undefined)
area under concentration-response curve [1]: 416
area under concentration-response curve [2]: 472
area under concentration-response curve [3]: 462

O=C(Nc1ccc(-c2ccnc(Nc3ccc(N4CCOCC4)cc3)n2)cc1)C1CCCN1 (centres undefined)
area under concentration-response curve [1]: 501
area under concentration-response curve [2]: 601
area under concentration-response curve [3]: 553

Cc1ccc(NC(=O)c2cccc(N(C)C)c2)cc1NC(=O)c1ccc(O)cc1
area under concentration-response curve [1]: 496
area under concentration-response curve [2]: 556
area under concentration-response curve [3]: 511

C[C@@H]1CN(Cc2ccc(F)cc2)[C@@H](C)CN1C(=O)c1cc2c(C(=O)C(=O)N(C)C)cn(C)c2cc1Cl
area under concentration-response curve [1]: 515
area under concentration-response curve [2]: 634
area under concentration-response curve [3]: 552

Nc1nc(OC(c2ccc(-c3cccc(F)c3)cc2)C(F)(F)F)cc(-c2ccc(C[C@@H](N)C(=O)O)cc2)n1 (some centres undefined)
area under concentration-response curve [1]: 464
area under concentration-response curve [2]: 488
area under concentration-response curve [3]: 449

CC(=O)Nc1nc(C)c(-c2ccc(Cl)c([S+](=O)([O-])NCCO)c2)s1
area under concentration-response curve [1]: 385
area under concentration-response curve [2]: 566
area under concentration-response curve [3]: 531

C[C@]12CC[C@H]3[C@@H](CCC4=CC(=O)CC[C@@H]43)[C@@H]1CC[C@@H]2OC(=O)CCc1ccccc1
area under concentration-response curve [1]: 461
area under concentration-response curve [2]: 534
area under concentration-response curve [3]: 498

O=C(NCCCNc1nc(Nc2cccc(NC(=O)N3CCCC3)c2)ncc1I)c1cccs1
area under concentration-response curve [1]: 498
area under concentration-response curve [2]: 482
area under concentration-response curve [3]: 539

CCCCNc1ncc2c(-c3ccc(CN4CCN(C)CC4)cc3)cn(C3CCC(O)CC3)c2n1 (centres undefined)
area under concentration-response curve [1]: 513
area under concentration-response curve [2]: 585
area under concentration-response curve [3]: 527

COC(=O)/C=C/C(=O)N(O)CCCCNCc1ccc(COC(=O)Nc2cccc3ccccc23)cc1
area under concentration-response curve [1]: 208
area under concentration-response curve [2]: 245
area under concentration-response curve [3]: 225

CCCCCCCc1ccc(CCc2cccc(O)c2C(=O)O)cc1
area under concentration-response curve [1]: 515
area under concentration-response curve [2]: 574
area under concentration-response curve [3]: 534

COCCNCc1ccc(-c2cc3nccc(Oc4ccc(NC(=O)C5(C(=O)Nc6ccc(F)cc6)CC5)cc4F)c3s2)nc1
area under concentration-response curve [1]: 302
area under concentration-response curve [2]: 414
area under concentration-response curve [3]: 374

CC(=O)N[C@H]1[C@H](O[C@@H]2c3ccc(c(Cl)c3)Oc3cc4cc(c3O[C@@H]3O[C@H](CO)[C@@H](O)[C@H](O)[C@H]3NC(=O)CCCCCCCC(C)C)Oc3ccc(cc3Cl)C[C@H]3NC(=O)[C@H](N)c5ccc(O)c(c5)Oc5cc(O)cc(c5)[C@H](NC3=O)C(=O)N[C@H]4C(=O)N[C@H]3C(=O)N[C@@H]2C(=O)N[C@@H](C(=O)O)c2cc(O)cc(O[C@H]4O[C@H](CO)[C@@H](O)[C@H](O)[C@@H]4O)c2-c2cc3ccc2O)O[C@H](CO)[C@@H](O)[C@@H]1O
area under concentration-response curve [1]: 492
area under concentration-response curve [2]: 593
area under concentration-response curve [3]: 551

COC1=C(F)C(=CC=C1)C/2=C(C)/N(CC3=C(F)C=CC=C3C(F)(F)F)C(=O)N(C[C@H](NCCCC(O)=O)C4=CC=CC=C4)C2=O
area under concentration-response curve [1]: 508
area under concentration-response curve [2]: 598 and 615
area under concentration-response curve [3]: 556 and 555

CC1(C)[C@@H](O[C@H]2O[C@H](C(=O)O)[C@@H](O)[C@H](O)[C@H]2O[C@@H]2O[C@H](C(=O)O)[C@@H](O)[C@H](O)[C@H]2O)CC[C@]2(C)[C@H]3C(=O)C=C4[C@@H]5C[C@@](C)(C(=O)O)CC[C@]5(C)CC[C@@]4(C)[C@]3(C)CC[C@@H]12
area under concentration-response curve [1]: 541
area under concentration-response curve [2]: 522
area under concentration-response curve [3]: 567

C=CC[N+]1([C@H]2C[C@H]3[C@@H]4CC[C@H]5C[C@H](O)[C@@H](N6CCOCC6)C[C@]5(C)[C@H]4CC[C@]3(C)[C@H]2OC(C)=O)CCCC1
area under concentration-response curve [1]: 597
area under concentration-response curve [2]: 639
area under concentration-response curve [3]: 610

CN1\C(=C(\O)C2=CC=CC=C2[S+]1([O-])=O)C(=O)NC3=NC=C(C)S3
area under concentration-response curve [1]: 461
area under concentration-response curve [2]: 523
area under concentration-response curve [3]: 511

NC/1=N/C(=O)N(C[C@@H](CO)OC[P](O)(O)=O)/C=C1
area under concentration-response curve [1]: 465
area under concentration-response curve [2]: 522
area under concentration-response curve [3]: 496

CC1=CC2=C(O1)C(=C3OC(=O)\C=C(C)/C3=C2)C
area under concentration-response curve [1]: 482
area under concentration-response curve [2]: 581
area under concentration-response curve [3]: 516

CC(C)(OCc1nn(Cc2ccccc2)c2ccccc12)C(=O)O
area under concentration-response curve [1]: 416
area under concentration-response curve [2]: 460
area under concentration-response curve [3]: 491

CC(C)(F)C[C@H](N[C@@H](c1ccc(-c2ccc([S+](C)(=O)[O-])cc2)cc1)C(F)(F)F)C(=O)NC1(C#N)CC1
area under concentration-response curve [1]: 481
area under concentration-response curve [2]: 587
area under concentration-response curve [3]: 527

CCCCCCCCCCCCc1ccc([S+](=O)([O-])Nc2nncs2)cc1
area under concentration-response curve [1]: 543
area under concentration-response curve [2]: 604
area under concentration-response curve [3]: 527

C[C@H]1CC2[C@@H]3CCC/4=C/C(=O)/C=C\[C@]4(C)[C@@]3(F)[C@@H](O)C[C@]2(C)[C@@]1(O)C(=O)CO (some centres undefined)
area under concentration-response curve [1]: 477
area under concentration-response curve [2]: 572
area under concentration-response curve [3]: 551

C[C@H](Nc1ncnc2[nH]cnc12)c1cc2ccc(F)cc2nc1-c1ccccn1
area under concentration-response curve [1]: 466
area under concentration-response curve [2]: 571
area under concentration-response curve [3]: 512
